Source: patent US20080280879A1, “SUBSTITUTED HETEROCYCLIC DERIVATIVES AND THEIR PHARMACEUTICAL USE AND COMPOSITIONS” (priority 2007, published 2008)
Values after ≈ are worked out from the molar mass of the structure shown.

Assays:
Assay type in all cases: cell-based, Staphylococcus aureus
Staph aureus 1146 [1] = test: MIC, microtiter broth dilution (CLSI M7-A7), Assay 1, Table 12 column B, no serum; details: for MIC: Staphylococcus aureus, 1146, Staph aureus 1146, Assay 1, no serum; for MIC, column B: Staph aureus 1146, Assay 1, no serum
In short: (§1)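 MIC values in μg/ml, taken as lowest drug concentration without macroscopically visible growth, geometric mean where run repeatedly. For serum-shifted testing, strains grew in Mueller-Hinton Broth plus 50% pooled inactivated human serum; otherwise CLSI M7-A7 microtiter dilution, M100-S16 interpretation.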

Staph aureus 1146 [2] = test: MIC in Mueller-Hinton Broth with 50% pooled inactivated human serum, Assay 1, Table 12; details: for MIC: Staphylococcus aureus, 1146, Staph aureus 1146, Assay 1, 50% human serum, read-out: MIC, column C; for MIC, column C: Staph aureus 1146, Assay 1, 50% human serum
In short: as §1

Staph aureus 2811 = test: MIC, microtiter broth dilution (CLSI M7-A7), Assay 1, Table 12 column D, no serum; details: for MIC: Staphylococcus aureus, 2811, Staph aureus 2811, Assay 1, no serum; for MIC, column D: Staph aureus 2811, Assay 1, no serum
In short: as §1

Staph aureus 2812 = test: MIC, microtiter broth dilution (CLSI M7-A7), Assay 1, Table 12 column E, no serum; details: for MIC: Staphylococcus aureus, 2812, Staph aureus 2812, Assay 1, no serum; for MIC, column E: Staph aureus 2812, Assay 1, no serum
In short: as §1

Staph aureus 1095 MRSA = test: MIC, microtiter broth dilution (CLSI M7-A7), Assay 1, Table 12 column A, no serum; details: Assay 1, no serum; for MIC: Staphylococcus aureus, MRSA
In short: as §1

Row | MIC (Staph aureus 1146 [1]) [µg/mL] | MIC (Staph aureus 1146 [2]) [µg/mL] | MIC (Staph aureus 2811) [µg/mL] | MIC (Staph aureus 2812) [µg/mL] | MIC (Staph aureus 1095 MRSA) [µg/mL] | MIC, column C (Staph aureus 1146 [2]) [µg/mL] | MIC, column E (Staph aureus 2812) [µg/mL] | MIC, column A (Staph aureus 1095 MRSA) [µg/mL] | MIC, column B (Staph aureus 1146 [1]) [µg/mL] | MIC, column D (Staph aureus 2811) [µg/mL] | Compound
1 | 1 (≈ 1.97 µM) | 32 (≈ 63.2 µM) | 1 (≈ 1.97 µM) | 2 (≈ 3.95 µM) | 4 (≈ 7.9 µM) |  |  |  |  |  | COc1ccc2nccc(C(O)CC[C@@H]3CCN(C4CC(Cc5cccc(F)c5)C4)C[C@@H]3C(=O)O)c2c1 (stereo partly drawn) [Example 192, (3R,4R)-1-[3-(3-fluorobenzyl)cyclobutyl]-4-[3-hydroxy-3-(6-methoxyquinolin-4-yl)propyl]piperidine-3-carboxylic acid]
2 | < 0.0625 | 1 (≈ 1.89 µM) | < 0.0625 | < 0.0625 | < 0.0625 |  |  |  |  |  | COc1ccc2nccc([C@@H](O)CC[C@@H]3CCN(C4CC(c5c(F)ccc(F)c5F)C4)C[C@@H]3C(=O)O)c2c1 (stereo partly drawn) [Example 195, (3R,4R)-4-[(3S)-3-hydroxy-3-(6-methoxyquinolin-4-yl)propyl]-1-[3-(2,3,6-trifluorophenyl)cyclobutyl] piperidine-3-carboxylic acid]
3 | 1 (≈ 1.75 µM) | 64 (≈ 112 µM) | 1 (≈ 1.75 µM) | 2 (≈ 3.5 µM) | 8 (≈ 14 µM) |  |  |  |  |  | COc1ccc2nccc([C@@H](O)CC[C@@H]3CCN(C4CC(c5ccc(Br)cc5F)C4)C[C@@H]3C(=O)O)c2c1 (stereo partly drawn) [Example 196, (3R,4R)-1-[3-(4-bromo-2-fluorophenyl)cyclobutyl]-4-[(3S)-3-hydroxy-3-(6-methoxyquinolin-4-yl)propyl] piperidine-3-carboxylic acid]
4 | < 0.0625 | 4 (≈ 7.57 µM) | < 0.0625 | < 0.0625 | 0.5 (≈ 0.946 µM) |  |  |  |  |  | COc1ccc2nccc([C@@H](O)CC[C@@H]3CCN(C4CC(c5ccc(F)c(F)c5F)C4)C[C@@H]3C(=O)O)c2c1 (stereo partly drawn) [Example 197, (3R,4R)-4-[(3S)-3-hydroxy-3-(6-methoxyquinolin-4-yl)propyl]-1-[3-(2,3,4-trifluorophenyl)cyclobutyl] piperidine-3-carboxylic acid]
5 | < 0.0625 | > 64 | < 0.0625 | < 0.0625 | 0.125 (≈ 0.243 µM) |  |  |  |  |  | COc1ccc2ncc(Cl)c(CCCC3(C(=O)O)CCN(C[C@@H]4C[C@H]4c4cc(F)ccc4F)C3)c2c1 (stereo partly drawn) [Example 198, 3-[3-(3-chloro-6-methoxyquinolin-4-yl)propyl]-1-{[(1R,2R)-2-(2,5-difluorophenyl)cyclopropyl]methyl} pyrrolidine-3-carboxylic acid]
6 | < 0.0625 | > 64 | < 0.0625 | < 0.0625 | 0.125 (≈ 0.236 µM) |  |  |  |  |  | COc1ccc2ncc(Cl)c(CCCC3(C(=O)O)CCN(C4CCC(c5cc(F)ccc5F)C4)C3)c2c1 (stereo not shown) [Example 199, 3-[3-(3-chloro-6-methoxyquinolin-4-yl)propyl]-1-[3-(2,5-difluorophenyl)cyclopentyl]pyrrolidine-3-carboxylic acid]
7 | 8 (≈ 14.9 µM) | > 64 | 8 (≈ 14.9 µM) | 8 (≈ 14.9 µM) | 32 (≈ 59.4 µM) |  |  |  |  |  | COc1ccc2nccc([C@@H](O)CC[C@@H]3CCN(C4CC(c5c(F)cccc5F)C4(C)C)C[C@@H]3C(=O)O)c2c1 (stereo partly drawn) [Example 200, (3R,4R)-1-[3-(2,6-difluorophenyl)-2,2-dimethylcyclobutyl]-4-[(3S)-3-hydroxy-3-(6-methoxyquinolin-4-yl)propyl]piperidine-3-carboxylic acid]
8 | 2 (≈ 3.88 µM) | 8 (≈ 15.5 µM) | 2 (≈ 3.88 µM) | 4 (≈ 7.76 µM) | 16 (≈ 31 µM) |  |  |  |  |  | O=C(O)[C@H]1CN(C2CC(c3c(F)cccc3F)C2)CC[C@H]1CCC(O)c1c(F)cnc2ccc(O)nc12 (stereo partly drawn) [Example 201, (3R,4R)-1-[3-(2,6-difluorophenyl)cyclobutyl]-4-[3-(3-fluoro-6-hydroxy-1,5-naphthyridin-4-yl)-3-hydroxypropyl]piperidine-3-carboxylic acid]
9 | 2 (≈ 3.81 µM) | 64 (≈ 122 µM) | 2 (≈ 3.81 µM) | 4 (≈ 7.62 µM) | 8 (≈ 15.2 µM) |  |  |  |  |  | COc1ccc2nccc(C(O)CC[C@@H]3CCN(C4CC(Cc5cc(F)ccc5F)C4)C[C@@H]3C(=O)O)c2c1 (stereo partly drawn) [Example 202, (3R,4R)-1-[3-(2,5-difluorobenzyl)cyclobutyl]-4-[3-hydroxy-3-(6-methoxyquinolin-4-yl)propyl]piperidine-3-carboxylic acid]
10 |  |  |  |  |  | 16.0 (≈ 29.4 µM) | 0.125 (≈ 0.229 µM) | 0.250 (≈ 0.459 µM) | 0.125 (≈ 0.229 µM) | 0.125 (≈ 0.229 µM) | COc1ccc2ncc(Cl)c(C(O)CC[C@@H]3CCN(C4CC(c5cc(F)ccc5F)C4)C[C@@H]3C(=O)O)c2c1 (stereo partly drawn) [Example 203, (3R,4R)-4-[3-(3-chloro-6-methoxyquinolin-4-yl)-3-hydroxypropyl]-1-[3-(2,5-difluorophenyl)cyclobutyl]piperidine-3-carboxylic acid]
11 |  |  |  |  |  | 4.00 (≈ 7.34 µM) | 0.250 (≈ 0.459 µM) | 0.250 (≈ 0.459 µM) | 0.125 (≈ 0.229 µM) | 0.125 (≈ 0.229 µM) | COc1ccc2ncc(Cl)c(C(O)CC[C@@H]3CCN(C4CC(c5cc(F)ccc5F)C4)C[C@@H]3C(=O)O)c2c1 (stereo partly drawn) [Example 204, (3R,4R)-4-[3-(3-chloro-6-methoxyquinolin-4-yl)-3-hydroxypropyl]-1-[3-(2,5-difluorophenyl)cyclobutyl]piperidine-3-carboxylic acid]

Second part, the compound before the results:

Row | Compound | MIC (Staph aureus 1146 [1]) [µg/mL] | MIC (Staph aureus 1146 [2]) [µg/mL] | MIC (Staph aureus 2811) [µg/mL] | MIC (Staph aureus 2812) [µg/mL] | MIC (Staph aureus 1095 MRSA) [µg/mL] | MIC, column C (Staph aureus 1146 [2]) [µg/mL] | MIC, column E (Staph aureus 2812) [µg/mL] | MIC, column A (Staph aureus 1095 MRSA) [µg/mL] | MIC, column B (Staph aureus 1146 [1]) [µg/mL] | MIC, column D (Staph aureus 2811) [µg/mL]
12 | COc1ccc2nccc(C(O)CC[C@@H]3CCN(C4CCN(c5ccccc5)C4)C[C@@H]3C(=O)O)c2c1 (stereo partly drawn) [Example 185, (3R,4R)-4-[3-hydroxy-3-(6-methoxyquinolin4-yl)propyl]-1-(1-phenylpyrrolidin-3-yl)piperidine-3-carboxylic acid] | 2 (≈ 4.08 µM) | > 64 | 8 (≈ 16.3 µM) | 4 (≈ 8.17 µM) | 8 (≈ 16.3 µM) |  |  |  |  | 
13 | COc1ccc2ncc(Cl)c(C(O)CC[C@@H]3CCN(C4CC(c5cc(F)ccc5F)C4)C[C@@H]3C(=O)O)c2c1 (stereo partly drawn) [Example 186, (3R,4R)-4-[3-(3-chloro-6-methoxyquinolin-4-yl)-3-hydroxypropyl]-1-[3-(2,5-difluorophenyl)cyclobutyl]piperidine-3-carboxylic acid] | < 0.0625 |  | < 0.0625 |  |  | 2.00 (≈ 3.67 µM) | <0.0625 | <0.0625 |  | 
14 | COc1ccc2ncc(Cl)c(C(O)CC[C@@H]3CCN(C4CC(c5ccccc5)C4)C[C@@H]3C(=O)O)c2c1 (stereo partly drawn) [Example 187, (3R,4R)-4-[3-(3-chloro-6-methoxyquinolin-4-yl)-3-hydroxypropyl]-1-(3-phenylcyclobutyl)piperidine-3-carboxylic acid] | < 0.0625 |  | < 0.0625 | < 0.0625 | < 0.0625 | 1.00 (≈ 1.96 µM) |  |  |  | 
15 | COc1ccc2ncc(Cl)c(C(O)CC[C@@H]3CCN(C4CC(c5c(F)cccc5F)C4)C[C@@H]3C(=O)O)c2c1 (stereo partly drawn) [Example 188, (3R,4R)-4-[3-(3-chloro-6-methoxyquinolin-4-yl)-3-hydroxypropyl]-1-[3-(2,6-difluorophenyl)cyclobutyl]piperidine-3-carboxylic acid] | < 0.0625 |  | < 0.0625 | < 0.0625 | < 0.0625 | 0.500 (≈ 0.917 µM) |  |  |  | 
16 | COc1ccc2ncc(F)c(C(O)CC[C@@H]3CCN(C4CC(c5c(F)cccc5F)C4)C[C@@H]3C(=O)O)c2n1 (stereo partly drawn) [Example 189, (3R,4R)-1-[3-(2,6-difluorophenyl)cyclobutyl]-4-[3-(3-fluoro-6-methoxy-1,5-naphthyridin-4-yl)-3-hydroxypropyl]piperidine-3-carboxylic acid] |  |  |  |  |  | 0.125 (≈ 0.236 µM) | <0.0625 | <0.0625 | <0.0625 | <0.0625
17 | COc1ccc2ncc(F)c(C(O)CC[C@@H]3CCN(C4CC(c5c(F)cccc5F)C4)C[C@@H]3C(=O)O)c2n1 (stereo partly drawn) [Example 190, (3R,4R)-1-[3-(2,6-difluorophenyl)cyclobutyl]-4-[3-(3-fluoro-6-methoxy-1,5-naphthyridin-4-yl)-3-hydroxypropyl]piperidine-3-carboxylic acid] |  |  |  |  |  | 1.00 (≈ 1.89 µM) | 0.125 (≈ 0.236 µM) | <0.0625 | <0.0625 | <0.0625
18 | COc1ccc2nccc([C@@H](O)CC[C@@H]3CCN(C4CC(c5cc(F)c(F)cc5F)C4)C[C@@H]3C(=O)O)c2c1 (stereo partly drawn) [Example 191, (3R,4R)-4-[(3S)-3-hydroxy-3-(6-methoxyquinolin-4-yl)propyl]-1-[3-(2,4,5-trifluorophenyl)cyclobutyl] piperidine-3-carboxylic acid] | < 0.0625 | 1 (≈ 1.89 µM) | < 0.0625 | < 0.0625 | 0.125 (≈ 0.236 µM) |  |  |  |  | 
19 | COc1ccc2nccc([C@@H](O)CC[C@@H]3CCN(C4CC(c5cccc(C(F)(F)F)c5F)C4)C[C@@H]3C(=O)O)c2c1 (stereo partly drawn) [Example 193, (3R,4R)-1-{3-[2-fluoro-3-(trifluoromethyl)phenyl]cyclobutyl}-4-[(3S)-3-hydroxy-3-(6-methoxyquinolin-4-yl)propyl]piperidine-3-carboxylic acid] | 0.125 (≈ 0.223 µM) | 64 (≈ 114 µM) | 0.125 (≈ 0.223 µM) | 0.125 (≈ 0.223 µM) | 0.5 (≈ 0.892 µM) |  |  |  |  | 
20 | COc1ccc2nccc([C@@H](O)CC[C@@H]3CCN(C4CC(c5ccc(C(F)(F)F)cc5F)C4)C[C@@H]3C(=O)O)c2c1 (stereo partly drawn) [Example 194, (3R,4R)-1-{3-[2-fluoro-4-(trifluoromethyl)phenyl]cyclobutyl}-4-[(3S)-3-hydroxy-3-(6-methoxyquinolin-4-yl)propyl]piperidine-3-carboxylic acid] | 2 (≈ 3.57 µM) | > 64 | 2 (≈ 3.57 µM) | 2 (≈ 3.57 µM) | 4 (≈ 7.14 µM) |  |  |  |  | 
